Counter-ions that a name gives are not always drawn.
What was measured:
Type in all cases: cell-based
[1] = test system: ACHN (renal cancer); test: Cancer cell growth inhibition, sulforhodamine B colorimetry; settings: incubation two days
Procedure: (§1) Cultured human cancer cells were placed in a 96-well plate. On the following day, a solution of the compound prepared in Example 10 (in five concentrations resulting from 10-fold stepwise dilution: 10^−4, 10^−5, 10^−6, 10^−7, or 10^−8 M) was added, followed by incubation for two days. Cell count after growth was determined in each plate through colorimetry using sulforhodamine B. The concentration at which the cell count after growth was inhibited to 50% of that of the cell count of the control (in the absence of the compound prepared in Example 10) was calculated (GI50). Simultaneously, on the basis of the cell count just before addition of the compound prepared in Example 10 (time zero), the following value (concentration) was calculated. • TGI: a concentration at which cell growth is inhibited to a cell count equal to that at time zero (concentration at which no change in cell count is observed) • LC50: a concentration at which cell count is reduced to 50% of the cell count at time zero (cell-killing effect).

[2] = test system: DMS114 (lung cancer); test: as above; settings: DMS114, incubation two days
Procedure: as §1

[3] = test system: PC-3 (prostatic carcinoma); test: as above; settings: PC-3, incubation two days
Procedure: as §1

[4] = test system: HCC2998 (colon cancer); test: as above; settings: HCC2998, incubation two days
Procedure: as §1

[5] = test system: OVCAR-3 (ovarian cancer); test: as above
Procedure: as §1

[6] = test system: LOX-IMVI (melanoma); test: as above; settings: incubation two days
Procedure: as §1

[7] = test system: MKN74 (stomach cancer); test: as above; settings: MKN74, incubation two days
Procedure: as §1

[8] = test system: MCF-7 (breast cancer); test: as above; settings: MCF-7, incubation two days
Procedure: as §1

[9] = test system: SF-539 (brain tumor); test: as above; settings: SF-539, incubation two days
Procedure: as §1

[10] = test system: cultured human cancer cells; test: Cancer cell growth inhibition, sulforhodamine B colorimetry, overall statement; settings: result in words
Procedure: as §1

[11] = test system: Human umbilical venous endothelial cells (HUVECs); test: Gene expression analysis (GeneChip HuGene FL array) in TNFα-stimulated HUVECs; settings: Example 10 at 1 μM, TSA at 10 μM
Procedure: Human umbilical venous endothelial cells (HUVECs) were placed in 10 cm dishes (3×10^5 cells/dish). Two days thereafter, Trichostatin A (TSA, produced by Upstate) dissolved in dimethyl sulfoxide (DMSO) and the compound prepared in Example 10 dissolved in DMSO were individually added to a final concentrations of 10 μM and 1 μM, respectively. Each sample was stimulated with TNFα (final concentration: 10 ng/mL, Genzyme-Techne). Four hours later, total RNA was extracted with ISOGEN (Nippon Gene Co., Ltd.). The subsequent procedure was performed in accordance with the manufacturer's protocol (Affymetrix). From the thus obtained total RNA, mRNA was purified by a conventional method. cDNA was synthesized from the purified mRNA, and then biotin-labeled cRNA was synthesized by in vitro transcription. The cRNA was purified and subjected to heat treatment for fragmentation. The fragmented cRNA was used in gene expression analysis.
Method of gene expression analysis: The thus-prepared fragmented cRNA was injected to a HuGene human FL array (Affymetrix), and allowed to hybridize for 16 hours at 45° C. After washing, streptavidin labeled with phycoerythrin, and biotinylated anti-streptavidin antibody were added to each sample in order to cause reaction. Gene expression information was read by use of a dedicated scanner for GeneChip™ (Hewlett Packard). The thus-obtained information was analyzed with GeneChip Software (Affymetrix) for comparison in terms of level of expression.

[12] = Homo sapiens, 48 h, read-out: LC50 (the source's name)
[13] = out of 52 genes increased twice or more by TNFα

## COc1ccc(N(Cc2ccnc(-c3cc(OC)c(OC)c(OC)c3)c2)C2CCN(Cc3ccnc(-c4cc(OC)c(OC)c(OC)c4)c3)CC2)cc1 [Example 10, 4-[N-(4-methoxyphenyl)-N-[[2-(3,4,5-trimethoxypheny)pyridin-4-yl]methyl]amino]-1-[[2-(3,4,5-trimethoxyphenyl)pyridin-4-yl]methyl]piperidine Trihydrochloride]
[1]; Homo sapiens, 48 h
  GI50: 1.9 µM
[1]; [12]
  CC50: > 100 µM
[1]
  TGI: >100 µM
[2]
  TGI: 2.6 µM
[2]; Homo sapiens, DMS-114, 48 h
  GI50: 0.038 µM
[2]; Homo sapiens, DMS-114, 48 h, read-out: LC50 (the source's name)
  CC50: > 100 µM
[3]; Homo sapiens, 48 h
  GI50: 26.3 µM
[3]; [12]
  CC50: > 100 µM
[3]
  TGI: >100 µM
[4]
  TGI: 10 µM
[4]; Homo sapiens, HCC 2998, 48 h
  GI50: 0.33 µM
[4]; Homo sapiens, HCC 2998, 48 h, read-out: LC50 (the source's name)
  CC50: 40 µM
[5]; Homo sapiens, 48 h, OVCAR-3, incubation two days
  GI50: 0.35 µM
[5]; Homo sapiens, OVCAR-3, 48 h, read-out: LC50
  CC50: > 100 µM
[5]; OVCAR-3, incubation two days
  TGI: 39 µM
[6]; Homo sapiens, 48 h
  GI50: 0.18 µM
[6]; [12]
  CC50: 41 µM
[6]
  TGI: 1.2 µM
[7]; Homo sapiens, MKN-74, 48 h
  GI50: 0.026 µM
[7]; Homo sapiens, MKN-74, 48 h, read-out: LC50 (the source's name)
  CC50: > 100 µM
[7]
  TGI: 0.56 µM
[8]; Homo sapiens, MCF7, 48 h
  GI50: 0.16 µM
[8]; Homo sapiens, MCF7, 48 h, read-out: LC50 (the source's name)
  CC50: > 100 µM
[8]
  TGI: >100 µM
[9]; Homo sapiens, 48 h
  GI50: 0.83 µM
  LC50 (concentration reducing cell count to 50% of time-zero count): > 100 µM
[9]
  TGI: >100 µM
[10]
  growth inhibitory effect on cultured human cancer cells: strong growth inhibitory effect
[11]; TNFα 10 ng/mL, 4 h
  mRNA expression level of ABC transporter B2: 69
  mRNA expression level of B94: 1010
  mRNA expression level of BCL3: 125
  mRNA expression level of Cox-2: 0
  mRNA expression level of EphrinA1: 148
  mRNA expression level of Gro1: 614
  mRNA expression level of I kappa B alpha: 1259
  mRNA expression level of IAP homolog B: 42
  mRNA expression level of ICAM-1: 2174
  mRNA expression level of IFNGR2: 186
  mRNA expression level of IL-7R: 44
  mRNA expression level of M-Ras-regulated GEF: 37
  mRNA expression level of MCP-1: 43
  mRNA expression level of Na/K-ATPase beta-1: 78
  mRNA expression level of Nef associated factor 1: 496
  mRNA expression level of OB-cadherin-2: 24
  mRNA expression level of RDC1: 27
  mRNA expression level of Spliceosomal Protein Sap 49: 40
  mRNA expression level of TRAF1: 88
  mRNA expression level of VCAM-1: 83
  mRNA expression level of beta-galactoside alpha-2; 6-sialyltransferase: 14
  mRNA expression level of caspase-like apoptosis regulatory protein 2 (clarp): 76
  mRNA expression level of cytoplasmic antiproteinase 2 (CAP2): 78
  mRNA expression level of ets-2: 90
  mRNA expression level of exodus-1: 310
  mRNA expression level of fractalkine: 7
  mRNA expression level of junB: 210
  mRNA expression level of lymphotoxin beta: −56
  mRNA expression level of metalloproteinase stromelysin-2: 54
  mRNA expression level of ninjurin1: 135
  mRNA expression level of p50-NF-kappa B homolog: 33
[11]; [13]
  number of genes whose expression was enhanced: 6 genes
  number of genes whose expression was inhibited: 25 genes

From patent publication US20050176764A1, “Medicine for treating cancer” (KOWA CO., LTD, priority 2002, published 2005)
